Structures can show the parent of a compound that is named as a salt. One block for each molecule: values may come before it.
Assays:
[1] = test system: MM.1S; assay: Antiproliferative effect in multiple myeloma cell line MM.1S (CellTiter-Glo); assay type: cell-based; conditions: Homo sapiens, MM1.S, 120 h, MM.1S cells, 5 days of compound co-incubation
Description: (§1) Periodical passaging was performed, and cells in logarithmic growth phase were taken for plating. • (1) Cells were stained with trypan blue and viable cells were counted. • (2) The cell concentration was adjusted to an appropriate level. [table] • (3) 90 μL of cell suspension was added to each well in the culture plate and cell-free medium was added to the blank control wells according to the table above. • (4) The culture plate was incubated overnight in an incubator at 37° C./5% CO2 and 100% relative humidity. […] It was prepared freshly prior to use. […] After the compound or DMSO was added, the mixture was pipetted and mixed well. […] 10 μL of DMSO-cell culture mixture was added to the vehicle control and blank control wells. […] The following procedure was performed according to the instructions of Promega CellTiter-Glo luminescence cell viability assay kit (Promega-G7573). […] The cell plate was wrapped with aluminum foil to keep out of light. (7) The plate was shaken on an orbital shaker for 2 min to induce cell lysis. (8) The culture plate was placed at room temperature for 10 min to stabilize the luminescence signals. (9) The luminescence signals were detected on 2104 EnVision plate reader. […] Inhibition rates of compounds at different concentrations were calculated in Excel, followed by plotting the inhibition curves and calculating relevant parameters including minimum inhibition rate (%), maximum inhibition rate (%) and IC50 using GraphPad Prism software.

[2] = test system: NCI-H929; assay: Antiproliferative effect in myeloma cell line NCI-H929 (CellTiter-Glo); assay type: cell-based; conditions: Homo sapiens, 120 h, NCI-H929 cells, 5 days of compound co-incubation
Description: as §1

[3] = Pharmacokinetic evaluation of compounds in mice; conditions: male, C57BL, mouse, in vivo
Excerpt: (§2) The test animals in the study were C57BL male mice, and the LC/MS/MS method was used to quantitatively determine the drug concentration in the plasma of the mice at different time points after intravenous injection or oral administration of the test compounds and the reference compound, thus evaluating the pharmacokinetic characteristics of the test drugs in the mice.
C57Balb/C (C57) mice (male, 20-30 g, 7-10 weeks old, Beijing Vital River or Shanghai SLAC).
Clear or suspended solution of the test compound was injected into C57 mice (overnight fasting) via the tail vein or administered intragastrically to C57 mice (overnight fasting). For intravenous injection, […] of blood was each collected by jugular vein puncture at 0 h (before injection) and 0.0833 h, 0.25 h, 0.5 h, 1 h, 2 h, 4 h, 6 h, 8 h and 24 h (after injection), and then placed in an anticoagulation tube added with EDTA-K2 (Jiangsu KANGJIAN Medical Apparatus Co., Ltd.), and the mixture was thoroughly vortex-mixed at 4° C. and centrifuged at 13000 rpm for 10 min; for intragastric administration, blood was collected by jugular vein puncture at 0 h (before administration) and 0.5 h, 1 h, 2 h, 4 h, 6 h, 8 h and 24 h (after administration), and then placed in an anticoagulation tube added with EDTA-K2 (Jiangsu KANGJIAN Medical Apparatus Co., Ltd.), and the mixture was thoroughly vortex-mixed and centrifuged at 13000 rpm for 10 min. The plasma concentration was measured by LC-MS/MS method, and the relevant pharmacokinetic parameters were calculated by WinNonlin™ Version 6.3 (Pharsight, Mountain View, Calif.) pharmacokinetic software using non-compartmental model linear logarithmic trapezoid method.

[4] = Pharmacokinetic evaluation of compounds in rats; assay type: in vivo, SD male rats; conditions: for clearance / half-life / bioavailability: male, Sprague Dawley, rat, plasma; for bioavailability: oral, intragastric administration 10 mg/kg vs intravenous 2 mg/kg, read-out: Bioavailability F
Excerpt: as §2, with “SD” for “C57BL”, “rats,” for “mice,”, “rats” for “mice”, “rats.” for “mice.”
Sprague Dawley (SD) rats (male, 200-300 g, 7-10 weeks old, Beijing Vital River or Shanghai SLAC).
Clear solution of the test compound was injected into SD rats (overnight fasting) via the tail vein or administered intragastrically to SD rats (overnight fasting). For intravenous injection, 200 μL of blood was each collected by jugular vein puncture at 0 h (before injection) and 0.0833 h, 0.25 h, 0.5 h, 1 h, 2 h, 4 h, 6 h, 8 h and 24 h (after injection), and then placed in an anticoagulation tube added with EDTA-K2 (Jiangsu KANGJIAN Medical Apparatus Co., Ltd.), and the mixture was thoroughly vortex-mixed at 4° C. and centrifuged at 13000 rpm for 10 min; for intragastric administration, blood was collected by jugular veinpuncture at 0 h (before administration) and 0.5 h, 1 h, 2 h, 4 h, 6 h, 8 h and 24 h (after administration), and then placed in an anticoagulation tube added with EDTA-K2 (Jiangsu KANGJIAN Medical Apparatus Co., Ltd.), and the mixture was thoroughly vortex-mixed and centrifuged at 13000 rpm for 10 min. The plasma concentration was measured by LC-MS/MS method, and the relevant pharmacokinetic parameters were calculated by WinNonlin™ Version 6.3 (Pharsight, Mountain View, Calif.) pharmacokinetic software using non-compartmental model linear logarithmic trapezoid method.

[5] = test system: human myeloma MM.1S cells; assay: In vivo pharmacodynamic study in subcutaneous xenograft tumor CB-17 SCID model of human myeloma MM.1S cells; parameters: species or system CB-17 SCID mice; conditions: for Tumor volume (Day 0): Day 0 (baseline at grouping), 5 mg/kg oral twice daily; for Tumor volume (Day 24) / TGI (Day 24): Day 24, 5 mg/kg oral twice daily; for TGI (Day 24): tumor growth inhibition vs vehicle control
Description: Cell culturing: human multiple myeloma cells MM.1S (ATCC® CRL-2974™) were cultured in vitro, in a semi-suspension manner, with an ATCC-formulated RPMI-1640 medium containing 10% fetal calf serum, 100 U/mL penicillin and 100 μg/mL streptomycin in an incubator at 37° C./5% CO2. Passages were performed twice a week.
At a required number, the cells were taken, counted and inoculated.
Animals: CB-17 SCID mice, female, 6-8 weeks old, weight of 18-20 g.
0.2 mL (5×10^6 cells) of MM.1S cells (along with matrigel in a volume ratio of 1:1) was subcutaneously inoculated on the right back of each mouse, and the mice were divided into groups for administration after the mean tumor volume was approximately 130 mm^3. Seven days constitute an administration cycle, twice daily with a 12 h interval, and the test compound was orally administered for a total of four cycles. Test compounds WX009 and WX023 were administered at a dose of 5 mg/kg, tumor volume was measured twice weekly with a two-dimensional caliper, and the volume was measured in cubic millimeters and calculated according to the following formula: V=0.5 a×b2 where a and b are the long and short diameters, respectively, of the tumor. Anti-tumor efficacy was determined by dividing the mean tumor increase volume of compound-treated animals by the mean tumor increase volume of untreated animals.

[6] = intragastric administration 10 mg/kg

Structure (SMILES): O=C1CCC(c2noc3ccc4ccccc4c23)C(=O)N1 (stereo not drawn) [WX004]
IC50 [1]: 6.6 nM
IC50 [2]: 21.2 nM

Structure (SMILES): O=C1CCC(c2noc3cc4occc4cc23)C(=O)N1 (stereo not drawn) [WX005]
IC50 [2]: 19.1 nM

Structure (SMILES): O=C1CCC(c2noc3ccc4ccoc4c23)C(=O)N1 (stereo not drawn) [WX006]
IC50 [1]: 2 nM

Structure (SMILES): O=C1CCC(c2noc3ccc4[nH]ccc4c23)C(=O)N1 (stereo not drawn) [WX009]
Area under plasma concentration-time curve (0-inf) ([3]; iv, 2 mg/kg): 5.34 µM·h
Area under plasma concentration-time curve (0-inf) ([3]; po, 10 mg/kg): 12.29 µM·h
Peak concentration ([3]; po, 10 mg/kg): 10.52 µM
Time to peak ([3]; po, 10 mg/kg): 0.25 h
half-life ([3]; mice, intravenous injection 2 mg/kg, read-out: Half life (converted)): 0.89 h
clearance ([3]; mice, intravenous injection 2 mg/kg, read-out: Plasma clearance): 1.39 L/h/kg
bioavailability ([3]; mice, oral administration 10 mg/kg vs intravenous 2 mg/kg, read-out: Bioavailability F): 46.1%
Area under plasma concentration-time curve (0-inf) [4, 6]: 26.34 µM·h
Peak concentration [4, 6]: 12.75 µM
Time to peak [4, 6]: 0.50 h
Area under plasma concentration-time curve (0-inf) ([4]; intravenous injection 2 mg/kg): 7.92 µM·h
clearance ([4]; intravenous injection 2 mg/kg): 0.954 L/h/kg
half-life ([4]; intravenous injection 2 mg/kg): 0.9 h
bioavailability [4]: 66.5%
Tumor volume (Day 0) [5]: 131 ± 12 mm^3
Tumor volume (Day 24) [5]: 14 ± 5 mm^3
TGI (Day 24) [5]: 105%

More lines, main results first:

IC50 [1]: 2.6 nM
Structure (SMILES): O=C1CCC(c2noc3ccc4cc(OCCNC5CCOCC5)ccc4c23)C(=O)N1 (stereo not drawn) [Hydrochloride of WX039]

IC50 [1]: 4.5 nM
Structure (SMILES): COc1ccc2c(ccc3onc(C4CCC(=O)NC4=O)c32)c1 (stereo not drawn) [WX013]

IC50 [1]: 3.8 nM
Structure (SMILES): CN(C)CCOc1ccc2c(ccc3onc(C4CCC(=O)NC4=O)c32)c1 (stereo not drawn) [WX015]

IC50 [1]: 6.4 nM
IC50 [2]: 10.3 nM
bioavailability [3]: 100%
Area under plasma concentration-time curve (0-inf) ([3]; iv, 2 mg/kg): 6.87 µM·h
clearance ([3]; iv, 2 mg/kg): 0.708 L/h/kg
half-life ([3]; iv, 2 mg/kg): 3.37 h
Area under plasma concentration-time curve (0-inf) ([3]; po, 10 mg/kg): 34.40 µM·h
Peak concentration ([3]; po, 10 mg/kg): 17.50 µM
Time to peak ([3]; po, 10 mg/kg): 0.25 h
Area under plasma concentration-time curve (0-inf) [4, 6]: 19.69 µM·h
Peak concentration [4, 6]: 3.08 µM
Time to peak [4, 6]: 0.75 h
Area under plasma concentration-time curve (0-inf) ([4]; intravenous injection 2 mg/kg): 3.76 µM·h
clearance ([4]; intravenous injection 2 mg/kg): 1.3 L/h/kg
half-life ([4]; intravenous injection 2 mg/kg): 1.24 h
bioavailability [4]: 73.7%
Structure (SMILES): O=C1CCC(c2noc3ccc4cc(OCCN5CCOCC5)ccc4c23)C(=O)N1 (stereo not drawn) [WX023]
Tumor volume (Day 0) [5]: 130 ± 8 mm^3
Tumor volume (Day 24) [5]: 15 ± 4 mm^3
TGI (Day 24) [5]: 105%

IC50 [1]: 3.4 nM
Structure (SMILES): O=C1CCC(c2noc3ccc4cc(OCCN5CCCC5)ccc4c23)C(=O)N1 (stereo not drawn) [WX027]

IC50 [1]: 3.4 nM
Structure (SMILES): O=C1CCC(c2noc3ccc4cc(CO)ccc4c23)C(=O)N1 (stereo not drawn) [WX061]

Source: patent publication US20220119376A1, “TRICYCLIC COMPOUNDS ACTING ON CRBN PROTEINS” (CHIA TAI TIANQING PHARMACEUTICAL GROUP CO., LTD., priority 2018, published 2022)
